Test results taken from article PMC5513037, “Examining the influence of specificity ligands and ATP-competitive ligands on the overall effectiveness of bivalent kinase inhibitors” (Proteome Science, 2017).

Assays:
Experiment in all cases: KAM-matrix competition in K562 lysate;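 for 0.001 uM KAM: median log10 fold change of treatment over DMSO control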;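 for 0.01 uM KAM: median log10 fold change of treatment over DMSO control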;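 for 0.1 uM KAM: median log10 fold change of treatment over DMSO control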;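 for 1 uM KAM: median log10 fold change of treatment over DMSO control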;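 for 10 uM KAM: median log10 fold change of treatment over DMSO control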
Format in all cases: binding
[1] = target: T1, JAK3 (Homo sapiens, UniProt P52333);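 for 0.001 uM KAM: median log10 fold change of treatment over DMSO control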;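 for 0.01 uM KAM: median log10 fold change of treatment over DMSO control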;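 for 0.1 uM KAM: median log10 fold change of treatment over DMSO control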;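 for 1 uM KAM: median log10 fold change of treatment over DMSO control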;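 for 10 uM KAM: median log10 fold change of treatment over DMSO control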
T1 construct: endogenous in cells; host or cells: K562
T1 sequence (P52333 1-1124): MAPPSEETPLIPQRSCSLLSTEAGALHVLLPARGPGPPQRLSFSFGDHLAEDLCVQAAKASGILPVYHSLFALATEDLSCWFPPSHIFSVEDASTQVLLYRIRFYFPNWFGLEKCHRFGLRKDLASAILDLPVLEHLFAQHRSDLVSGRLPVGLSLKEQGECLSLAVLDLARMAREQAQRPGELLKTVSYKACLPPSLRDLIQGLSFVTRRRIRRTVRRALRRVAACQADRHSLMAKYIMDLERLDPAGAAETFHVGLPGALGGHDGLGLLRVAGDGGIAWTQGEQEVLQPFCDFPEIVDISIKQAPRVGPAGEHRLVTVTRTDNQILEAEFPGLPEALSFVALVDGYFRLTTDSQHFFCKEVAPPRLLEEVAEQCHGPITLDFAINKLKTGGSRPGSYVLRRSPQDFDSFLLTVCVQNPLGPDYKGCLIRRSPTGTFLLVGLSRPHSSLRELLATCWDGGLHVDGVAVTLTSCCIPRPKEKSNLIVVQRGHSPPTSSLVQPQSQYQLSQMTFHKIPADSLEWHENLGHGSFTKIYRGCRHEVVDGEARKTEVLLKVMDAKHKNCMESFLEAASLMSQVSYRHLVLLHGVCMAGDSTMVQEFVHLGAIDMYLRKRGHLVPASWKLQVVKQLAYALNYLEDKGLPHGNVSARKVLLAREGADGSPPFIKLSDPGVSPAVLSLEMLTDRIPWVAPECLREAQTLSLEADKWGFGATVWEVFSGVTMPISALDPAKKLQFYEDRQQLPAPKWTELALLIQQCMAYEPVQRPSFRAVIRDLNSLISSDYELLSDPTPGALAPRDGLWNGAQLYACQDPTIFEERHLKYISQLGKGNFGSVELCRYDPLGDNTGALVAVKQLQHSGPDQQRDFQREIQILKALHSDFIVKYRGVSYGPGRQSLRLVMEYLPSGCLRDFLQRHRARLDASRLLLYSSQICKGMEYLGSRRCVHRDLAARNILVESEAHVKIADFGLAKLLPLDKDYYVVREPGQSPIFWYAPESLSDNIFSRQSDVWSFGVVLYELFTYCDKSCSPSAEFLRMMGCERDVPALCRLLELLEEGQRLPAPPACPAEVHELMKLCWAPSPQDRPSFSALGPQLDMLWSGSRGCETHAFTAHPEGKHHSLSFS
Experimental: (§1) Supplement 12953_2017_125_MOESM1_ESM.zip/MS_Supp Info.xlsx, sheet "KAM" | column: 10 uM KAM; 1 uM KAM; 0.1 uM KAM; 0.01 uM KAM; 0.001 uM KAM; RB50

[2] = target: T2, TAOK3 (Homo sapiens, UniProt Q9H2K8)
T2 construct: endogenous in cells; host or cells: K562
T2 sequence (Q9H2K8 1-898): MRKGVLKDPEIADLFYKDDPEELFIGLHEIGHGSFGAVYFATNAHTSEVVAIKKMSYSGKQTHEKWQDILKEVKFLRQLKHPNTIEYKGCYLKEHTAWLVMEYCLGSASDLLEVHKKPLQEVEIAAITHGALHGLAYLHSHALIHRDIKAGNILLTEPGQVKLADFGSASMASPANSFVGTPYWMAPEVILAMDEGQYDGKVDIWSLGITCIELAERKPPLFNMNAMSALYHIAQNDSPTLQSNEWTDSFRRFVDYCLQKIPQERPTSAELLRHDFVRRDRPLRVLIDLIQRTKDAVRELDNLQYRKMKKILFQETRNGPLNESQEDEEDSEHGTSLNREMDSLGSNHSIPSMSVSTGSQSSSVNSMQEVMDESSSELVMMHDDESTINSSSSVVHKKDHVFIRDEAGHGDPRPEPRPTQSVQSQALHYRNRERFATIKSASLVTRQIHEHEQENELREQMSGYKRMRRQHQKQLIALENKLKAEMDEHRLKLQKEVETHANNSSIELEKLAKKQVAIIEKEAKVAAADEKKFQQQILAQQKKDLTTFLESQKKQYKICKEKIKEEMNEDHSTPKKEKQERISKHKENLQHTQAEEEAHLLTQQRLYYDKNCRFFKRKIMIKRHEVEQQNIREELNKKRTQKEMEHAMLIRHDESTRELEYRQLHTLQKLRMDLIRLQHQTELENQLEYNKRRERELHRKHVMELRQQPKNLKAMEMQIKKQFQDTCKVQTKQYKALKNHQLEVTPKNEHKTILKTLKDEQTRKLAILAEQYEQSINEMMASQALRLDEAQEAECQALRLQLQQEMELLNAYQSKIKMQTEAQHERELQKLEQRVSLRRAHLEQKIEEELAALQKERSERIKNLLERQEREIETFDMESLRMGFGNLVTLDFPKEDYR
Experimental: as §1

[3] = target: T3, BUB1 (Homo sapiens, UniProt O43683);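 for 0.001 uM KAM: median log10 fold change of treatment over DMSO control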;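 for 0.01 uM KAM: median log10 fold change of treatment over DMSO control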;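 for 0.1 uM KAM: median log10 fold change of treatment over DMSO control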;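 for 1 uM KAM: median log10 fold change of treatment over DMSO control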;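 for 10 uM KAM: median log10 fold change of treatment over DMSO control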
T3 construct: endogenous in cells; host or cells: K562
T3 sequence (O43683 whole entry): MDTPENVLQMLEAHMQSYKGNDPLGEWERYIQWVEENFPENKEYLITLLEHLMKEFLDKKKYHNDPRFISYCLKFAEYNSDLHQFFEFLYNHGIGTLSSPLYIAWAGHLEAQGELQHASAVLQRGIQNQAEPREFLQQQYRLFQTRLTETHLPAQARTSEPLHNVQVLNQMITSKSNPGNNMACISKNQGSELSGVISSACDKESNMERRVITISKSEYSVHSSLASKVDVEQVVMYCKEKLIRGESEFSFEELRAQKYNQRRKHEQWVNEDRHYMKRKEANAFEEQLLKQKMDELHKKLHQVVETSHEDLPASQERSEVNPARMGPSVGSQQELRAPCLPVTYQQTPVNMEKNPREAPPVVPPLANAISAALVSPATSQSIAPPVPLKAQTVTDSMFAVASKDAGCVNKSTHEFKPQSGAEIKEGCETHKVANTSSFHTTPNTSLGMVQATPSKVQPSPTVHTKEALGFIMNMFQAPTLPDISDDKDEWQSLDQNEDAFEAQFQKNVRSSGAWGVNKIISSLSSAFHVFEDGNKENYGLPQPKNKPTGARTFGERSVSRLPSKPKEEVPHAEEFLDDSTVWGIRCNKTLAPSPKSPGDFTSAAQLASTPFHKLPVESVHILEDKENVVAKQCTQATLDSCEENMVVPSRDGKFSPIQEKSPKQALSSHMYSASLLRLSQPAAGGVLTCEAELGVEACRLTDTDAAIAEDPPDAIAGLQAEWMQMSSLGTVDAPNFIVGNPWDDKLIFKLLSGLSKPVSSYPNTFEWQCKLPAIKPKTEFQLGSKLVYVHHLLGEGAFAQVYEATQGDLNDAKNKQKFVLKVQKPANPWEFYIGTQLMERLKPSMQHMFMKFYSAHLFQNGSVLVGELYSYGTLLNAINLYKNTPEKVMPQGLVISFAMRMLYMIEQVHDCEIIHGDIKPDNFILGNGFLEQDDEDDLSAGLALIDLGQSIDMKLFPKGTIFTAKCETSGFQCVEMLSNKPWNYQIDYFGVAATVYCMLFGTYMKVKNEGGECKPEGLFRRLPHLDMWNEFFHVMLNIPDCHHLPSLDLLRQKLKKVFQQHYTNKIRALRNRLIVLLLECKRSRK
Experimental: as §1

[4] = target: T4, MAPK8 (Homo sapiens, UniProt P45983)
T4 construct: endogenous in cells; host or cells: K562
T4 sequence (P45983 whole entry): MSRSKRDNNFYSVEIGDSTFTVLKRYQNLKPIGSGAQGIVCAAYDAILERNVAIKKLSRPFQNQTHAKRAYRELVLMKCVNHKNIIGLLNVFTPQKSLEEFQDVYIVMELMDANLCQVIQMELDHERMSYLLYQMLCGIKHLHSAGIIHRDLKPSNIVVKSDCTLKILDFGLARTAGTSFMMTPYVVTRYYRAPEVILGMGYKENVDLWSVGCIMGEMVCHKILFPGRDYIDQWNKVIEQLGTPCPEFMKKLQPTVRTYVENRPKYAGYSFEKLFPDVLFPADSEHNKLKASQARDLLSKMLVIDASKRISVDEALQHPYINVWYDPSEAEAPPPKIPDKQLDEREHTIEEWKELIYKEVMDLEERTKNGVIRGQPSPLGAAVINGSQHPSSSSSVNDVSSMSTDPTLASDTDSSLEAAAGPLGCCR
Experimental: as §1

[5] = target: T5, RPS6KA3 (Homo sapiens, UniProt P51812);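 for 0.001 uM KAM: median log10 fold change of treatment over DMSO control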;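 for 0.01 uM KAM: median log10 fold change of treatment over DMSO control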;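 for 0.1 uM KAM: median log10 fold change of treatment over DMSO control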;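 for 1 uM KAM: median log10 fold change of treatment over DMSO control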;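 for 10 uM KAM: median log10 fold change of treatment over DMSO control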
T5 construct: endogenous in cells; host or cells: K562
T5 sequence (P51812 whole entry): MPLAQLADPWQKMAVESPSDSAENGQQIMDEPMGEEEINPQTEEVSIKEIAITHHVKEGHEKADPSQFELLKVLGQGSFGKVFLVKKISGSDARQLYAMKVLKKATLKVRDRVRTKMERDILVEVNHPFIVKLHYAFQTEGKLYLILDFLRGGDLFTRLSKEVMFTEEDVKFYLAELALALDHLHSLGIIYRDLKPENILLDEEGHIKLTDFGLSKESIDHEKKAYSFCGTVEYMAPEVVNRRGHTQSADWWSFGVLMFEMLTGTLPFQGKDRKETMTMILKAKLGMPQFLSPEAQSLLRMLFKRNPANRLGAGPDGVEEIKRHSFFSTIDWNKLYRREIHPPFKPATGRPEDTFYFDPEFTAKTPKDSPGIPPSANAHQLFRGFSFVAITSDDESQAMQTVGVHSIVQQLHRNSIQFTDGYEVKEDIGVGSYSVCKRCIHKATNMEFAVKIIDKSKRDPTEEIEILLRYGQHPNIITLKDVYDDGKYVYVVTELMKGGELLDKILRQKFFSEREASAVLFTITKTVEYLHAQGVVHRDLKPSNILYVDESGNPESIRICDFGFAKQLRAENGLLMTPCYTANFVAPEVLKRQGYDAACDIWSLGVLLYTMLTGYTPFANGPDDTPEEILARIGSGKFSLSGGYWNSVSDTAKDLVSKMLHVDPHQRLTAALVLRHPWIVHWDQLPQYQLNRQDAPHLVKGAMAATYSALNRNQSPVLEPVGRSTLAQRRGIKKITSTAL
Experimental: as §1

[6] = target: T6, TRRAP (Homo sapiens, UniProt Q9Y4A5);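 for 0.001 uM KAM: median log10 fold change of treatment over DMSO control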;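 for 0.01 uM KAM: median log10 fold change of treatment over DMSO control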;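 for 0.1 uM KAM: median log10 fold change of treatment over DMSO control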;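 for 1 uM KAM: median log10 fold change of treatment over DMSO control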;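 for 10 uM KAM: median log10 fold change of treatment over DMSO control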
T6 construct: endogenous in cells; host or cells: K562
Experimental: as §1

[7] = target: T7, MELK (Homo sapiens, UniProt Q14680)
T7 construct: endogenous in cells; host or cells: K562
T7 sequence (Q14680 whole entry): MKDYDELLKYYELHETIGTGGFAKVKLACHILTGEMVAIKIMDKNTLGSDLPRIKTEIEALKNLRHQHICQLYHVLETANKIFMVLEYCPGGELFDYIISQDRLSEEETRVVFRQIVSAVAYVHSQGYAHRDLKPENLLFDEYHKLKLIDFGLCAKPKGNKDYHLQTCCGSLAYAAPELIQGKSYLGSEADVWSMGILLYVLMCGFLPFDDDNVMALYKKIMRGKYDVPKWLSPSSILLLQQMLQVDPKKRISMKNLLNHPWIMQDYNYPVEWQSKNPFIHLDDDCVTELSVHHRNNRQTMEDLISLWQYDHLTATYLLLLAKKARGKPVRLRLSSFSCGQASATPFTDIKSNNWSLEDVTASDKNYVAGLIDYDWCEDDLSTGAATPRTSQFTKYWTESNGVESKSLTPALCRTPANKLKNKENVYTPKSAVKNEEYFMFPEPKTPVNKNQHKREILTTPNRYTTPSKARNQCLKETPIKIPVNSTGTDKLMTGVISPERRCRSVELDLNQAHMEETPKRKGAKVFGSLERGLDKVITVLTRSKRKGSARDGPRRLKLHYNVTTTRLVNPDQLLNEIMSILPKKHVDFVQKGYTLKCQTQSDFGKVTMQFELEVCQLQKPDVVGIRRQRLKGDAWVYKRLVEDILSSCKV
Experimental: as §1

[8] = KAM 0.001-10 uM, read-out: RB50 (the source's name)
[9] = read-out: RB50 (the source's name)

N#CCc1ccc(Nc2nc(NCCCN)cc(Nc3cc(C4CC4)[nH]n3)n2)cc1 [KAM]
IC50 [1, 8]: > 10 µM
0.001 uM KAM ([1]; relative to 0 uM KAM = 0): -0.04271
0.01 uM KAM ([1]; relative to 0 uM KAM = 0): -0.0544
0.1 uM KAM ([1]; relative to 0 uM KAM = 0): -0.1188
1 uM KAM ([1]; relative to 0 uM KAM = 0): -0.2952
10 uM KAM ([1]; relative to 0 uM KAM = 0): -0.1976
median Log10 fold change ([2]; 0.001 uM KAM): -0.0153
median Log10 fold change ([2]; 0.01 uM KAM): 0.005812
median Log10 fold change ([2]; 0.1 uM KAM): -0.1317
median Log10 fold change ([2]; 1 uM KAM): -0.2502
median Log10 fold change ([2]; 10 uM KAM): -0.3407
IC50 [2, 9]: 2.69 µM
IC50 [3, 8]: > 10 µM
0.001 uM KAM ([3]; relative to 0 uM KAM = 0): -0.05097
0.01 uM KAM ([3]; relative to 0 uM KAM = 0): -0.002823
0.1 uM KAM ([3]; relative to 0 uM KAM = 0): -0.07998
1 uM KAM ([3]; relative to 0 uM KAM = 0): -0.1399
10 uM KAM ([3]; relative to 0 uM KAM = 0): -0.1894
median Log10 fold change ([4]; 0.001 uM KAM): -0.03388
median Log10 fold change ([4]; 0.01 uM KAM): -0.03516
median Log10 fold change ([4]; 0.1 uM KAM): -0.1302
median Log10 fold change ([4]; 1 uM KAM): -0.2377
median Log10 fold change ([4]; 10 uM KAM): -0.3812
IC50 [4, 9]: 2.35 µM
IC50 [5, 8]: > 10 µM
0.001 uM KAM ([5]; relative to 0 uM KAM = 0): -0.01612
0.01 uM KAM ([5]; relative to 0 uM KAM = 0): -0.01929
0.1 uM KAM ([5]; relative to 0 uM KAM = 0): -0.05841
1 uM KAM ([5]; relative to 0 uM KAM = 0): -0.1372
10 uM KAM ([5]; relative to 0 uM KAM = 0): -0.2816
IC50 [6, 8]: > 10 µM
0.001 uM KAM ([6]; relative to 0 uM KAM = 0): -0.07186
0.01 uM KAM ([6]; relative to 0 uM KAM = 0): 0.02458
0.1 uM KAM ([6]; relative to 0 uM KAM = 0): 0.0008026
1 uM KAM ([6]; relative to 0 uM KAM = 0): 0.06144
10 uM KAM ([6]; relative to 0 uM KAM = 0): -0.07955
median Log10 fold change ([7]; 0.001 uM KAM): -0.02147
median Log10 fold change ([7]; 0.01 uM KAM): 0.005817
median Log10 fold change ([7]; 0.1 uM KAM): -0.06915
median Log10 fold change ([7]; 1 uM KAM): -0.3528
median Log10 fold change ([7]; 10 uM KAM): -0.5701
IC50 [7, 9]: 0.94 µM
